20 compounds from US20250236608A1, “EGFR INHIBITORS” (Blueprint Medicines Corporation, priority 2022, published 2025) can be followed below.

The structures appear in SMILES notation.

The target of test [1] is EGFR L858R (Homo sapiens (Human), UniProt P00533, L858R). The test is described as follows: Biochemical EGFR inhibition assay, EGFR L858R. The settings on record: Caliper mobility shift; 1.0 mM ATP or ATP Km; read-out: Enz EGFR_L858R IC50. The method, then: (§1) Reactions proceeded until between 10% to 20% total peptides were phosphorylated at room temperature (25° C.) and were terminated with 35 mM 2,2′,2″,2″-(ethane-1,2-diyldinitrilo)tetraacetic acid (EDTA). Product was detected using the Caliper mobility shift detection method where the phosphorylated peptide (product) and substrate were electrophoretically separated and measured. Percent activity was plotted against log concentration of compound and points to generate an apparent IC50.
Sequence of EGFR L858R (P00533 25-1210 L858R): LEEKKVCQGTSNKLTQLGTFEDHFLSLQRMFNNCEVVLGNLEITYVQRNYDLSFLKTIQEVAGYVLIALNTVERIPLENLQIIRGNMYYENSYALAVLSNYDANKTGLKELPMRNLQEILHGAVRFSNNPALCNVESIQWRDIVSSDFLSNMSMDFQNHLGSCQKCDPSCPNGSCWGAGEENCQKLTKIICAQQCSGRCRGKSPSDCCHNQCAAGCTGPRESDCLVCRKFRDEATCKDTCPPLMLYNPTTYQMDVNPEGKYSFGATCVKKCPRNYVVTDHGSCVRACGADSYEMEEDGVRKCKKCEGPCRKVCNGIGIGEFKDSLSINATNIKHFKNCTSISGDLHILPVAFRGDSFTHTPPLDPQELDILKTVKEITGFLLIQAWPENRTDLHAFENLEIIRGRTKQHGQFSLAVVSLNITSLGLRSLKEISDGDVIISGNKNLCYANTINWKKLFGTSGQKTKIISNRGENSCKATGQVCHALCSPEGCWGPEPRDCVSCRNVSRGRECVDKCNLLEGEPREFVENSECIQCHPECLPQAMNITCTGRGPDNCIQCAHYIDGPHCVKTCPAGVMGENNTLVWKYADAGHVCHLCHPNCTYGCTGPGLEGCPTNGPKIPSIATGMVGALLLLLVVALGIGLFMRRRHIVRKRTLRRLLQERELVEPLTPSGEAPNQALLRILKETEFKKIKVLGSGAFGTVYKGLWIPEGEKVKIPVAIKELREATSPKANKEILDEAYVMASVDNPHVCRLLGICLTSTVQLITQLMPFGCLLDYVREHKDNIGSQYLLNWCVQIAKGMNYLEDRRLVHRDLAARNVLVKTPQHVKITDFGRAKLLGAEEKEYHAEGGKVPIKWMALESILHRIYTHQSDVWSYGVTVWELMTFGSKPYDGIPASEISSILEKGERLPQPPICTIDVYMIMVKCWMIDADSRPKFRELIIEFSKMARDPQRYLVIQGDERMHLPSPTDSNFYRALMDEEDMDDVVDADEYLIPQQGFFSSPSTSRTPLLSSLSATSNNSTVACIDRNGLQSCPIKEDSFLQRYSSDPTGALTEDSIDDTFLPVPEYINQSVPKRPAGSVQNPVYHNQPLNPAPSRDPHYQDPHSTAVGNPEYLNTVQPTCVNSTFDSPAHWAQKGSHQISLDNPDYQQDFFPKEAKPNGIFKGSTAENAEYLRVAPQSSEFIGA

Test [2] concerns the target EGFR (d746-750) (Homo sapiens (Human), UniProt P00533, DEL746-750). The test is described as follows: Biochemical EGFR inhibition assay, EGFR (d746-750). As to conditions: Caliper mobility shift; 1.0 mM ATP or ATP Km; read-out: Enz EGFR_Exon19-del746-750 IC50. The method, then:
as §1

Test [3] deals with pEGFR (Tyr1068) in PC-9 cells (Ex19Del) (Homo sapiens (Human), UniProt P00533, DEL746-750). The test is described as follows: PC-9 pEGFR AlphaLISA assay. It is filed as cell-based. The settings on record: 4 hours incubation, p-EGFR (Tyr1068) AlphaLISA, read-out: Ext pEGFR_PC-9 Ex19Del IC50. As for the experimental part:
PC-9/A431 pEGFR AlphaLISA Assays
Inhibitory effects of compounds were evaluated in cellular assays that measure level of intracellular phosphorylation of EGFR in PC-9 (ECACC, #90071810, Milipore/Sigma) and A431 cell lines (ATCC, CRL-1555) using AlphaLISA sureFire ultra p-EGFR (Tyr1068) assay kit (PerkinElmer, ALSU-PEGFR-A50K). PC-9 cells were seeded at 3.125×10^5 cells/ml in 40 μL phenol-free DMEM supplemented with 10% FBS per well of a 384 well plate (Corning, 3764), while A431 were seeded at 3.125×10^5 cells/ml in 40 μL in phenol-free DMEM with 0.5% FBS. Cells were allowed to adhere overnight at 37° C./5% CO2. On the next day, compounds were transferred at 4-fold, 10-point serial dilution from compound source plate to cell plates using liquid handler Echo550 and were incubated at 37° C./5% CO2 for 4 hours. A431 cells were stimulated prior harvesting for 10 min with EGF at final concentration of 30 ng/ml in the incubator. Medium was removed from the plates and cells were lysed with 10 μL of 1× AlphaLISA lysis buffer (supplemented with 1× protease/phosphatase inhibitor cocktail) followed by shaking at 600 rpm for 30 minutes at room temperature. Lysates were transferred to Optiplate (Apricot designs) and 5 μl of 1× acceptor bead mix (prepared just before use) was added to each well followed by incubation at room temperature for 1.5-2 h in dark. Then 5 μL of freshly-made donor bead mix is added to each well under subdued lighting or green filters, was mixed well on the shaker and the plate was sealed and left for an overnight incubation at room temperature in dark. On the next day, the plate was read the Envision using standard AlphaLisa settings. Percent of pEGFR inhibition was plotted against log concentration of compounds to generate IC50 values.
(In general: Alpha assays give light when donor and acceptor beads are brought close together.)

Sequence of pEGFR (Tyr1068) in PC-9 cells (Ex19Del) (P00533 other isoform, or with tags, fused parts or gaps del 746-750): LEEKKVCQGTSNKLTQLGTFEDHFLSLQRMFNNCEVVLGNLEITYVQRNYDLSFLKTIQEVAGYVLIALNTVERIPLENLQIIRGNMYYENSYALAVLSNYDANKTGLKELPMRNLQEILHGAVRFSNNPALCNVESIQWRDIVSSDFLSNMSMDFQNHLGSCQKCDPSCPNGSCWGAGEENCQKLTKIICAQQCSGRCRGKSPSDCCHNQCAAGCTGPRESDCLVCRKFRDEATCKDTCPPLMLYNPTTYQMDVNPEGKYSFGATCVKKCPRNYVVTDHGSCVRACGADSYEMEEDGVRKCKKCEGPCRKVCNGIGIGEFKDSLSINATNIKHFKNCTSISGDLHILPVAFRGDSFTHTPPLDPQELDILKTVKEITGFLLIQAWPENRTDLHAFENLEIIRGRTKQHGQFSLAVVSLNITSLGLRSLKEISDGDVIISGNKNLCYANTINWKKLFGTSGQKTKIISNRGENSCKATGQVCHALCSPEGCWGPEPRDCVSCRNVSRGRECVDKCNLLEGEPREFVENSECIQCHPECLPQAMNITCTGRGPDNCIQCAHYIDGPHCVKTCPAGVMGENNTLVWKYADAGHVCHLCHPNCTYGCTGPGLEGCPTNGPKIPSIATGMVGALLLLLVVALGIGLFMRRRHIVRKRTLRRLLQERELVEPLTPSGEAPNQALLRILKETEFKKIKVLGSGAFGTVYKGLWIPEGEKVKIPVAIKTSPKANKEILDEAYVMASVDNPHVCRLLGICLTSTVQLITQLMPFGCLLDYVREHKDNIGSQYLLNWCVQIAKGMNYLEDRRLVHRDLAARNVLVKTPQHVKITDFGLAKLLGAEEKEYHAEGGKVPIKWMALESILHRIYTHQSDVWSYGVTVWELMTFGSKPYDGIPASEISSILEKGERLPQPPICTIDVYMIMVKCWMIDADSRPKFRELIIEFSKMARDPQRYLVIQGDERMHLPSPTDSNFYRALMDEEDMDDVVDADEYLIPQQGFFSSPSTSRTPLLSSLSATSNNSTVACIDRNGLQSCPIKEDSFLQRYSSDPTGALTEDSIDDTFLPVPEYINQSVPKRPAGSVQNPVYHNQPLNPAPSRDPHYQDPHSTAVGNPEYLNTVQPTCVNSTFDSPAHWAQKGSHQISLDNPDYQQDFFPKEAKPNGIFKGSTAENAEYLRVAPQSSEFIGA
Sequence of EGFR (d746-750) (P00533 other isoform, or with tags, fused parts or gaps del 1-694/del 746-750 limits assumed): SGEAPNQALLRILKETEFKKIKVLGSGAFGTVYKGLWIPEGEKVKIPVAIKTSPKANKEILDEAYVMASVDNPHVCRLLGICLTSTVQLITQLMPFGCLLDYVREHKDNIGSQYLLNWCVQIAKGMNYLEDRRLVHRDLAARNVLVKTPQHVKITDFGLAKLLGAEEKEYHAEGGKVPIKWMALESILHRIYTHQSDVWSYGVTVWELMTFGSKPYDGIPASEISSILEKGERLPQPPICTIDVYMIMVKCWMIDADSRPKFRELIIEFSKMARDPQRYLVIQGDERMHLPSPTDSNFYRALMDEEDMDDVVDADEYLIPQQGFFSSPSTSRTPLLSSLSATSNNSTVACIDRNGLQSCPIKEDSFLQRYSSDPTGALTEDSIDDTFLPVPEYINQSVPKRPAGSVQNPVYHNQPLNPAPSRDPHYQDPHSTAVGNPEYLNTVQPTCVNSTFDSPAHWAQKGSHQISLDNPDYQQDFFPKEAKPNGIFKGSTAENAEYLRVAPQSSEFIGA

Usually IC50 stands for the concentration that gives 50% inhibition. Turning to `COc1cc2ncnc(-c3cn(C)nc3-c3ccc(F)cc3F)c2nc1NC(=O)[C@]12C[C@H]1CN(C)C2` (single isomer, unassigned) [Example 424, (1R,5R)—N-(4-(3-(2,4-difluorophenyl)-1-methyl-1H-pyrazol-4-yl)-7-methoxypyrido[3,2-d]pyrimidin-6-yl)-3-methyl-3-azabicyclo[3.1.0]hexane-1-carboxamide or (1S,5S)—N-(4-(3-(2,4-difluorophenyl)-1-methyl-1H-pyrazol-4-yl)-7-methoxypyrido[3,2-d]pyrimidin-6-yl)-3-methyl-3-azabicyclo[3.1.0]hexane-1-carboxamide], the figures for the IC50 in test [1], in test [2] and in test [3] were 2.3 nM, 1.2 nM and 1.5 nM, respectively.
On the same counts, the results for `CCC(=O)Nc1cc2c(-c3cn(CC(F)F)nc3-c3ccccc3)ncnc2cc1OC` [Example 250, N-(4-(1-(2,2-difluoroethyl)-3-phenyl-1H-pyrazol-4-yl)-7-methoxyquinazolin-6-yl)propionamide] are 1.4 nM, 1 nM and 0.9 nM.
In the same order, the values of `COc1cc2ncnc(-c3cn(CC(F)F)nc3-c3ccccc3)c2cc1C1(O)CCOCC1` [Example 127, 4-(4-(1-(2,2-difluoroethyl)-3-phenyl-1H-pyrazol-4-yl)-7-methoxyquinazolin-6-yl)tetrahydro-2H-pyran-4-ol] are 2.6 nM, 1.4 nM and 2.6 nM.
On the same counts, the results for `CCn1cc(-c2ncnc3cc(OC)c(NC(=O)C45CC(N(C)C)(C4)C5)nc23)c(-c2ccc(F)cc2)n1` [Example 405, 3-(dimethylamino)-N-(4-(1-ethyl-3-(4-fluorophenyl)-1H-pyrazol-4-yl)-7-methoxypyrido[3,2-d]pyrimidin-6-yl)bicyclo[1.1.1]pentane-1-carboxamide] are 2 nM, 0.8 nM and 1.7 nM.
Consider `[2H]C([2H])([2H])n1ncc(-c2ncnc3cc(OC)c(NC(=O)C45CC(N(C)C)(C4)C5)nc23)c1-c1ccccc1` [Example 493], for which the IC50 stood at 92.4 nM in test [1], 31.9 nM in test [2] and 258 nM in test [3].
Turning to `CCC(=O)Nc1cc2c(-c3cn(C)nc3-c3ccccc3)ncnc2cc1-n1ccc(C)n1` [Example 450, N-(7-(3-methyl-1H-pyrazol-1-yl)-4-(1-methyl-3-phenyl-1H-pyrazol-4-yl)quinazolin-6-yl)propionamide], the IC50 in test [1] was 1.2 nM; in test [2], 0.7 nM; in test [3] it was 1 nM.
As for `COc1cc2ncnc(-c3cn(C)nc3-c3ccccc3)c2cc1NC(=O)N1CCO[C@@H]2C[C@@H]21` (stereo in doubt) [Example 185, N-[7-methoxy-4-(1-methyl-3-phenyl-1H-pyrazol-4-yl)quinazolin-6-yl]-2-oxa-5-azabicyclo[4.1.0]heptane-5-carboxamide], the IC50 worked out at 2.1 nM in test [1], 1.3 nM in test [2] and 3.1 nM in test [3].
On the same counts, the results for `COc1cc2ncnc(-c3cn(C)nc3-c3ccccc3)c2cc1O[C@@H](C)C1COC1` [Example 22, (S)-7-methoxy-4-(1-methyl-3-phenyl-1H-pyrazol-4-yl)-6-(1-(oxetan-3-yl)ethoxy)quinazoline] are 1.7 nM, 1.2 nM and 4.8 nM.
On the same counts, the results for `COc1cc2ncnc(-c3cn(C)nc3-c3ccccc3)c2cc1-c1cccc2[nH]ncc12` [Example 143, 6-(1H-indazol-4-yl)-7-methoxy-4-(1-methyl-3-phenyl-1H-pyrazol-4-yl)quinazoline] are 4.5 nM, 1.7 nM and 3.2 nM.
On the same counts, the results for `COc1cc2ncnc(-c3cn(C)nc3-c3ccccc3)c2cc1NC(=O)c1cnn(C(F)(F)F)c1C` [Example 234, N-(7-methoxy-4-(1-methyl-3-phenyl-1H-pyrazol-4-yl)quinazolin-6-yl)-5-methyl-1-(trifluoromethyl)-1H-pyrazole-4-carboxamide] are 1.9 nM, 1.1 nM and 2.8 nM.
Regarding `CN(C)CCOc1cc2ncnc(-c3cn(C)nc3-c3ccccc3)c2cc1NC(=O)C12CC(C1)C2` [Example 299, N-(7-(2-(dimethylamino)ethoxy)-4-(1-methyl-3-phenyl-1H-pyrazol-4-yl)quinazolin-6-yl)bicyclo[1.1.1]pentane-1-carboxamide], the IC50 in test [1] came to 15.3 nM; in test [2] it was 5.4 nM; in test [3], 7.1 nM.
In the same order, the values of `C[C@@H](O)c1cc2c(-c3cn(CC(F)F)nc3-c3ccccc3)ncnc2cc1O[C@H]1CCOC1` (single isomer, unassigned) [Example 118, (R)-1-(4-(1-(2,2-difluoroethyl)-3-phenyl-1H-pyrazol-4-yl)-7-(((S)-tetrahydrofuran-3-yl)oxy)quinazolin-6-yl)ethan-1-ol or (S)-1-(4-(1-(2,2-difluoroethyl)-3-phenyl-1H-pyrazol-4-yl)-7-(((S)-tetrahydrofuran-3-yl)oxy)quinazolin-6-yl)ethan-1-ol] are 3.9 nM, 2.4 nM and 6 nM.
On the same counts, the results for `COc1cc2ncnc(-c3cn(C4COC4)nc3-c3ccccc3)c2cc1OC(=O)N1CCOC[C@@H]1C` [Example 68, 7-methoxy-4-(1-(oxetan-3-yl)-3-phenyl-1H-pyrazol-4-yl)quinazolin-6-yl (S)-3-methylmorpholine-4-carboxylate] are 6.3 nM, 2.7 nM and 3 nM.
In the same order, the values of `COc1cc2ncnc(-c3cn(C)nc3-c3ccccc3)c2cc1-c1cnc2c(ccn2C)c1` [Example 140, 7-methoxy-6-(1-methyl-1H-pyrrolo[2,3-b]pyridin-5-yl)-4-(1-methyl-3-phenyl-1H-pyrazol-4-yl)quinazoline] are 4.5 nM, 1.9 nM and 6.7 nM.
In the case of `COc1cc2ncnc(-c3cn(C)nc3-c3ccccc3)c2cc1C(C)O` (stereo not drawn) [Example 100, 1-(7-methoxy-4-(1-methyl-3-phenyl-1H-pyrazol-4-yl)quinazolin-6-yl)ethan-1-ol], the IC50 in test [1] came to 2.9 nM; in test [2], 2 nM; in test [3] it was 7.6 nM.
On the same counts, the results for `CCC(=O)Nc1cc2c(-c3cn(C)nc3-c3ccccc3)ncnc2cc1C#CCN1CCOCC1` [Example 451, N-(4-(1-methyl-3-phenyl-1H-pyrazol-4-yl)-7-(3-morpholinoprop-1-yn-1-yl)quinazolin-6-yl)propionamide] are 3.5 nM, 2 nM and 2.8 nM.
For the compound `COc1cc2ncnc(-c3cn(C)nc3-c3ccccc3)c2nc1NC(=O)c1ccc(C2CC2)nc1` [Example 357, 6-cyclopropyl-N-(7-methoxy-4-(1-methyl-3-phenyl-1H-pyrazol-4-yl)pyrido[3,2-d]pyrimidin-6-yl)nicotinamide], the figures for the IC50 in test [1], in test [2] and in test [3] were 2.2 nM, 1.1 nM and 4.4 nM, respectively.
In the same order, the values of `COc1cc2ncnc(-c3cn(C)nc3-c3ccccc3)c2cc1NC(=O)c1cnn(C(C)C)c1` [Example 208, 1-isopropyl-N-(7-methoxy-4-(1-methyl-3-phenyl-1H-pyrazol-4-yl)quinazolin-6-yl)-1H-pyazole-4-carboxamide] are 1.1 nM, 0.7 nM and 1.8 nM.
On the same counts, the results for `COc1cc2ncnc(-c3cn(C)nc3-c3ccccc3)c2cc1NC(=O)c1ccc(C(F)F)nc1` [Example 352, 6-(difluoromethyl)-N-(7-methoxy-4-(1-methyl-3-phenyl-1H-pyrazol-4-yl)quinazolin-6-yl)nicotinamide] are 3.6 nM, 1.7 nM and 4.9 nM.
On the same counts, the results for `COc1cc2ncnc(-c3cn(C)nc3-c3ccccc3)c2cc1NC(=O)c1ccncc1` [Example 351, N-(7-methoxy-4-(1-methyl-3-phenyl-1H-pyrazol-4-yl)quinazolin-6-yl)isonicotinamide] are 3.1 nM, 1.7 nM and 4.6 nM.
